Source: patent US7322965B2, “Infection-resistant medical devices” (priority 2002, dated 2008)
In brackets after ≈: the same amount, converted by molar mass. Like-named read-outs stand apart in the source and are kept apart here.

Key:
[1] = tested on: S. aureus UC-20206; assay: Determination of minimum inhibitory concentration (microdilution); assay type: cell-based; details: Staphylococcus aureus, UC20206, 18 h
[2] = tested on: S. epidermidis UC-20207; assay: as above; assay type: cell-based; details: Staphylococcus epidermidis, UC20207; S. epidermidis UC-20207; 18 h; read-out: MIC (minimum inhibitory concentration)
[3] = tested on: S. aureus UC-20205; assay: as above; assay type: cell-based; details: Staphylococcus aureus, UC20205, 18 h
[4] = tested on: S. epidermidis UC-20207; assay: Time course adherence assay (prophylactic and delayed treatment); assay type: cell-based; details: for inhibition at 1 µg/mL / inhibition at 2 µg/mL / inhibition at 4 µg/mL / inhibition at 80 µg/mL: Staphylococcus epidermidis, read-out: Percent inhibition of bacterial adherence relative to controls; for Mean OD550: UC-20207
Description: (§1) Drug effects on bacterial adherence were measured 18 hours after treatment initiation using a quantitative spectrophotometric assay.
(§2) Relative inhibition of adherence was expressed by the following equation: (OD of control well−OD of treated well/OD of control well)×100, where OD is the mean optical density of six replicate wells from two separate experiments (three replicates per experiment). Control was defined as infected, drug-free cultures.
(§3) The primary efficacy variable in this study was the measurement of adherent bacteria to polystyrene surfaces after 18 hours to 24 hours of growth. To determine whether statistically significant differences existed between treatments (4×MIC, 2×MIC, MIC, and ½ MIC) compared with the infected-nontreated controls, multiple comparisons according to Dunnett's test (Montgomery, Design and Analysis of Experiments (1991)) were applied for each clinical strain. Differences were considered statistically significant when p<0.05.

[5] = tested on: S. epidermidis UC-20208; assay: as above; assay type: cell-based; details: for inhibition at 1 µg/mL / inhibition at 2 µg/mL / inhibition at 4 µg/mL / inhibition at 8 µg/mL: Staphylococcus epidermidis, read-out: Percent inhibition of bacterial adherence relative to controls; for Mean OD550: UC-20208
Description: as §1, §2, §3

[6] = Resistance to thermal decomposition; assay type: physicochemical
Text: The medical device can be, for example, a suture, orthopedic appliance, stent, catheter, guidewire, shunt (e.g., hemodialysis shunt or cerebrospinal shunt), prosthesis (e.g., prosthetic heart valve or prosthetic joint), cardiac pacemaker, neuronal stimulator, or vascular graft. The medical device can be made of biomaterials (i.e., biologically-compatible materials known to those skilled in the art, such as metal, polymeric, or ceramic materials). The antimicrobial agent can be incorporated into the medical device according to methods known to those skilled in the art, such as by immersing the medical device in a solution (e.g., an aqueous solution) containing the antimicrobial agent, or, for example, by methods described in one of the following references: U.S. Pat. No. 3,987,797; U.S. Pat. No. 4,563,485; U.S. Pat. No. 4,875,479; U.S. Pat. No. 4,946,870; U.S. Pat. No. 5,306,289; U.S. Pat. No. 5,584,877; U.S. Pat. No. 5,607,685; U.S. Pat. No. 5,788,979; U.S. Pat. No. 6,143,037; U.S. Pat. No. 6,238,687; WO00/56283; and WO 01/28601, the disclosures of which are incorporated herein by reference. The medical device can include a polymeric material, and the polymeric material can be co-extruded with the antibacterial agent. […]

[7] = 1.0 μg/ml, treatment 0 h post-infection
[8] = 1.0 μg/ml, treatment 2 h post-infection
[9] = 1.0 μg/ml, treatment 4 h post-infection
[10] = 1.0 μg/ml, treatment 6 h post-infection
[11] = 2.0 μg/ml (MIC), treatment 0 h post-infection
[12] = 2.0 μg/ml (MIC), treatment 2 h post-infection
[13] = 2.0 μg/ml (MIC), treatment 4 h post-infection
[14] = 2.0 μg/ml (MIC), treatment 6 h post-infection
[15] = 4.0 μg/ml, treatment 0 h post-infection
[16] = 4.0 μg/ml, treatment 2 h post-infection
[17] = 4.0 μg/ml, treatment 4 h post-infection
[18] = 4.0 μg/ml, treatment 6 h post-infection

## CC(=O)NC[C@H]1CN(c2ccc(N3CCOCC3)c(F)c2)C(=O)O1 [Linezolid, (S)-N-[[3-[3-fluoro-4-(4-morpholinyl)phenyl]-2-oxo-5-oxazolidinyl]methyl]acetamide]
[1]
  MIC: 4 µg/mL (≈ 11.9 µM)
[2]
  MIC: 2 µg/mL (≈ 5.93 µM)
[3]
  MIC: 2 µg/mL (≈ 5.93 µM)
[4]; UC20207, 0 h
  inhibition at 1 µg/mL: 96.5%
  inhibition at 2 µg/mL: 99%
  inhibition at 4 µg/mL: 99.6%
  inhibition at 80 µg/mL: 99.8%
[4]; UC20207, 2 h
  inhibition at 1 µg/mL: 97.5%
  inhibition at 2 µg/mL: 99.8%
  inhibition at 4 µg/mL: 99.7%
  inhibition at 80 µg/mL: 99.6%
[4]; UC20207, 4 h
  inhibition at 1 µg/mL: 68.4%
  inhibition at 2 µg/mL: 87.8%
  inhibition at 4 µg/mL: 99.2%
  inhibition at 80 µg/mL: 99%
[4]; UC20207, 6 h
  inhibition at 1 µg/mL: 0%
  inhibition at 2 µg/mL: 0%
  inhibition at 4 µg/mL: 41.4%
  inhibition at 80 µg/mL: 75.1%
[4]; [7]
  Mean OD550: 0.084 ± 0.049
[4]; [8]
  Mean OD550: 0.064 ± 0.046
[4]; [9]
  Mean OD550: 0.921 ± 0.119
[4]; [10]
  Mean OD550: 2.757 ± 0.173
[4]; [11]
  Mean OD550: 0.024 ± 0.005
[4]; [12]
  Mean OD550: 0.004 ± 0.002
[4]; [13]
  Mean OD550: 0.356 ± 0.418
[4]; [14]
  Mean OD550: 2.938 ± 0.119
[4]; [15]
  Mean OD550: 0.009 ± 0.004
[4]; [16]
  Mean OD550: 0.007 ± 0.001
[4]; [17]
  Mean OD550: 0.022 ± 0.010
[4]; [18]
  Mean OD550: 1.558 ± 0.094
[4]; linezolid 80 μg/ml, treatment 0 h post-infection
  Mean OD550: 0.005 ± 0.002
[4]; linezolid 80 μg/ml, treatment 2 h post-infection
  Mean OD550: 0.009 ± 0.003
[4]; linezolid 80 μg/ml, treatment 4 h post-infection
  Mean OD550: 0.028 ± 0.020
[4]; linezolid 80 μg/ml, treatment 6 h post-infection
  Mean OD550: 0.662 ± 0.103
[5]; UC20208, 0 h
  inhibition at 1 µg/mL: 99.9%
  inhibition at 2 µg/mL: 99.9%
  inhibition at 4 µg/mL: 99.8%
  inhibition at 8 µg/mL: 100%
[5]; UC20208, 2 h
  inhibition at 1 µg/mL: 99.8%
  inhibition at 2 µg/mL: 99.8%
  inhibition at 4 µg/mL: 99.7%
  inhibition at 8 µg/mL: 99.7%
[5]; UC20208, 4 h
  inhibition at 1 µg/mL: 22.1%
  inhibition at 2 µg/mL: 100%
  inhibition at 4 µg/mL: 100%
  inhibition at 8 µg/mL: 100%
[5]; UC20208, 6 h
  inhibition at 1 µg/mL: 0%
  inhibition at 2 µg/mL: 0%
  inhibition at 4 µg/mL: 56.8%
  inhibition at 8 µg/mL: 89.1%
[5]; [7]
  Mean OD550: 0.001 ± 0.002
[5]; [8]
  Mean OD550: 0.003 ± 0.001
[5]; [9]
  Mean OD550: 0.856 ± 0.472
[5]; [10]
  Mean OD550: 1.127 ± 0.133
[5]; [11]
  Mean OD550: 0.001 ± 0.001
[5]; [12]
  Mean OD550: 0.003 ± 0.000
[5]; [13]
  Mean OD550: 0.000 ± 0.003
[5]; [14]
  Mean OD550: 1.602 ± 0.300
[5]; [15]
  Mean OD550: 0.002 ± 0.001
[5]; [16]
  Mean OD550: 0.004 ± 0.001
[5]; [17]
  Mean OD550: 0.000 ± 0.001
[5]; [18]
  Mean OD550: 0.363 ± 0.280
[5]; 8.0 μg/ml, treatment 0 h post-infection
  Mean OD550: 0.000 ± 0.001
[5]; 8.0 μg/ml, treatment 2 h post-infection
  Mean OD550: 0.004 ± 0.001
[5]; 8.0 μg/ml, treatment 4 h post-infection
  Mean OD550: 0.000 ± 0.003
[5]; 8.0 μg/ml, treatment 6 h post-infection
  Mean OD550: 0.092 ± 0.053
[6]
  temperature up to which resistant to thermal decomposition: at least 121 °C
